Reference: patent publication US12077503B2, “Substituted cyclic amides and their use as herbicides” (FMC CORPORATION, priority 2015, dated 2024)

Assays:
Assay type in all cases: in vivo
[1] = tested on: barnyardgrass (Echinochloa crus-galli); experiment: Test A preemergence; conditions: Echinochloa crus-galli, pre-emergence, 240 h, preemergence, 0 to 100 scale where 0 is no effect and 100 is complete control, read-out: Barnyardgrass plant response rating
Summary of the method: (§1)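 Seeded soil received test chemicals as a preemergence directed spray, and seedlings at one to two leaves, 2–10 cm tall, received them postemergence, in a non-phytotoxic, surfactant-containing solvent mixture. Pots were held in a greenhouse for approximately 10 d, then rated for injury from 0, no effect, to 100, complete control.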

[2] = tested on: Kochia (Kochia scoparia); experiment: Test A preemergence; conditions: Bassia scoparia, pre-emergence, 240 h, preemergence, 0 to 100 scale where 0 is no effect and 100 is complete control, read-out: Kochia plant response rating
Summary of the method: as §1

[3] = tested on: ryegrass, Italian (Italian ryegrass, Lolium multiflorum); experiment: Test A preemergence; conditions: Lolium multiflorum, pre-emergence, 240 h, preemergence, 0 to 100 scale where 0 is no effect and 100 is complete control, read-out: Ryegrass, Italian plant response rating
Summary of the method: as §1

[4] = tested on: ragweed (common ragweed, Ambrosia elatior); experiment: Test A preemergence; conditions: Ambrosia artemisiifolia, pre-emergence, 240 h, preemergence, 0 to 100 scale where 0 is no effect and 100 is complete control, read-out: Ragweed plant response rating
Summary of the method: as §1

[5] = tested on: pigweed (Amaranthus retroflexus); experiment: Test A preemergence; conditions: Amaranthus retroflexus, pre-emergence, 240 h, preemergence, 0 to 100 scale where 0 is no effect and 100 is complete control, read-out: Pigweed plant response rating
[6] = tested on: barnyardgrass (Echinochloa crus-galli); experiment: Test A postemergence; conditions: Echinochloa crus-galli, post-emergence, 240 h, postemergence, read-out: Barnyardgrass plant response rating
Summary of the method: as §1

[7] = tested on: blackgrass (Alopecurus myosuroides); experiment: Test A postemergence; conditions: Alopecurus myosuroides, post-emergence, 240 h, postemergence, read-out: Blackgrass plant response rating
Summary of the method: as §1

[8] = tested on: corn (Zea mays); experiment: Test A postemergence; conditions: Zea mays, post-emergence, 240 h, postemergence, read-out: Corn plant response rating
Summary of the method: as §1

[9] = tested on: Kochia (Kochia scoparia); experiment: Test A postemergence; conditions: Bassia scoparia, post-emergence, 240 h, postemergence, read-out: Kochia plant response rating
Summary of the method: as §1

[10] = tested on: Galium (catchweed bedstraw, Galium aparine); experiment: Test A postemergence; conditions: Galium, post-emergence, 240 h, postemergence, read-out: Galium plant response rating
Summary of the method: as §1

[11] = tested on: ryegrass, Italian (Italian ryegrass, Lolium multiflorum); experiment: Test A postemergence; conditions: Lolium multiflorum, post-emergence, 240 h, postemergence
Summary of the method: as §1

[12] = tested on: giant foxtail (Setaria faberii); experiment: Test A postemergence; conditions: Setaria faberi, post-emergence, 240 h, postemergence, read-out: Foxtail, Giant plant response rating
Summary of the method: as §1

[13] = tested on: ragweed (common ragweed, Ambrosia elatior); experiment: Test A postemergence; conditions: Ambrosia artemisiifolia, post-emergence, 240 h, postemergence
Summary of the method: as §1

[14] = tested on: wheat (Triticum aestivum); experiment: Test A postemergence; conditions: Triticum aestivum, post-emergence, 240 h, postemergence
Summary of the method: as §1

[15] = tested on: pigweed (Amaranthus retroflexus); experiment: Test A postemergence; conditions: Amaranthus retroflexus, post-emergence, 240 h, postemergence
Summary of the method: as §1

[16] = 125 g ai/ha, visual injury on 0 to 100 scale (0 no effect, 100 complete control), approx. 10 d
[17] = 500 g ai/ha, 0 to 100 scale, 0 is no effect, 100 is complete control

## CN1C[C@H](c2ccc(C(F)(F)F)cc2)[C@](F)(C(=O)Nc2cccc(F)c2F)C1=O (racemic) [Compound 1152]
[1]; 125 g ai/ha, approx. 10 d
  pest or weed control at 125 g/ha: 20%
[1]; 500 g ai/ha
  pest or weed control at 500 g/ha: 90%
[2]; 125 g ai/ha, approx. 10 d
  pest or weed control at 125 g/ha: 0%
[2]; 500 g ai/ha
  pest or weed control at 500 g/ha: 0%
[3]; 125 g ai/ha, approx. 10 d
  pest or weed control at 125 g/ha: 0%
[3]; 500 g ai/ha
  pest or weed control at 500 g/ha: 20%
[4]; 125 g ai/ha, approx. 10 d
  pest or weed control at 125 g/ha: 0%
[4]; 500 g ai/ha
  pest or weed control at 500 g/ha: 0%
[5]; 125 g ai/ha, approx. 10 d
  pest or weed control at 125 g/ha: 60%
[5]; 500 g ai/ha
  pest or weed control at 500 g/ha: 80%
[6]; [16]
  pest or weed control at 125 g/ha: 0%
[6]; [17]
  pest or weed control at 500 g/ha: 0%
[7]; [16]
  pest or weed control at 125 g/ha: 0%
[7]; [17]
  pest or weed control at 500 g/ha: 0%
[8]; [16]
  plant injury at 125 g/ha: 0%
[8]; [17]
  plant injury at 500 g/ha: 0%
[9]; [16]
  pest or weed control at 125 g/ha: 0%
[9]; [17]
  pest or weed control at 500 g/ha: 0%
[10]; [16]
  pest or weed control at 125 g/ha: 0%
[10]; [17]
  pest or weed control at 500 g/ha: 20%
[11]; 125 g ai/ha, visual injury vs untreated controls after approx. 10 d, 0 = no effect, 100 = complete control, read-out: Ryegrass, Italian plant response rating (0 to 100 scale)
  pest or weed control at 125 g/ha: 0%
[11]; 500 g ai/ha, 0 to 100 scale, 0 is no effect, 100 is complete control, read-out: Ryegrass, Italian plant response rating
  pest or weed control at 500 g/ha: 0%
[12]; [16]
  pest or weed control at 125 g/ha: 20%
[12]; [17]
  pest or weed control at 500 g/ha: 40%
[13]; 125 g ai/ha, visual injury vs untreated controls after approx. 10 d, 0 = no effect, 100 = complete control, read-out: Ragweed plant response rating (0 to 100 scale)
  pest or weed control at 125 g/ha: 0%
[13]; 500 g ai/ha, 0 to 100 scale, 0 is no effect, 100 is complete control, read-out: Ragweed plant response rating
  pest or weed control at 500 g/ha: 0%
[14]; 125 g ai/ha, visual injury vs untreated controls after approx. 10 d, 0 = no effect, 100 = complete control, read-out: Wheat plant response rating (0 to 100 scale)
  plant injury at 125 g/ha: 0%
[14]; 500 g ai/ha, 0 to 100 scale, 0 is no effect, 100 is complete control, read-out: Wheat plant response rating
  plant injury at 500 g/ha: 0%
[15]; 125 g ai/ha, visual injury vs untreated controls after approx. 10 d, 0 = no effect, 100 = complete control, read-out: Pigweed plant response rating (0 to 100 scale)
  pest or weed control at 125 g/ha: 0%
[15]; 500 g ai/ha, 0 to 100 scale, 0 is no effect, 100 is complete control, read-out: Pigweed plant response rating
  pest or weed control at 500 g/ha: 0%
